Here are results for three molecules from ChEMBL document CHEMBL1914367, “Formation, recognition and bioactivities of a novel G-quadruplex in the STAT3 gene” (Bioorg Med Chem Lett, 2011).

The source made the active and inactive calls. The rule behind the calls is not given here.

The test system of assay [1] is Nucleic Acid. Put plainly: Binding affinity to STAT3 G-quadruplex in 3'-flanking region 5'-GGGCTGGGGATGGGGAGGGGG-3' assessed as intensity ratio of all complex ions to the sum of all G-quadruplex and complex ions at 20 uM by ESI mass spectroscopy relative to control. In kind it is nucleic-acid assay.
The subject of assay [2] is Nucleic Acid. Nature of the assay: Binding affinity to STAT3 G-quadruplex in rat cardiomyocytes assessed as down regulation of STAT3 gene expression at 10 uM after 48 hrs by RT-PCR analysis. In kind it is cell-based.
In assay [3] the test system is HEK293. Nature of the assay: Down regulation of human STAT3 gene expression in human HEK293 cells cloned with MutQ vector harboring G-quadruplex GGG to GTG substitution mutation at 2 to 10 uM after 24 hrs by luciferase reporter gene assay. In kind it is functional, cell-based. (A reporter such as luciferase makes a cellular process visible.)
Assay [4] relates to Nucleic Acid. Nature of the assay: Binding affinity to STAT3 G-quadruplex in 3'-flanking region 5'-GGGCTGGGGATGGGGAGGGGG-3' assessed as melting temperature at 40 uM by UV-Vis spectrophotometry (reference value: 58 degC). In kind it is nucleic-acid assay.
For assay [5], the system named is HEK293. Put plainly: Down regulation of human STAT3 gene expression in human HEK293 cells cloned with DelQ vector harboring G-quadruplex G-rich sequence deletion at 2 to 10 uM after 24 hrs by luciferase reporter gene assay. In kind it is functional, cell-based.
The test system of assay [6] is Nucleic Acid. Put plainly: Down regulation of human STAT3 gene expression in human HEK293 cells cloned with FRQ vector harboring intact G-quadruplex at 2 to 10 uM after 24 hrs by luciferase reporter gene assay. In kind it is cell-based.
Assay [7] relates to Nucleic Acid. Put plainly: Binding affinity to G-telomeric quadruplex 5'-GGGTTAGGGTTAGGGTTAGGG-3' assessed as the intensity ratio of all complex ions to the sum of all G-quadruplex and complex ions at 20 uM by ESI mass spectroscopy relative to control. In kind it is nucleic-acid assay.
Assay [8] relates to Nucleic Acid. Nature of the assay: Binding affinity to STAT3 G-quadruplex in rat cardiomyocytes assessed as down regulation of STAT3 protein expression at 10 uM after 48 hrs by Western blot analysis. In kind it is cell-based.
In assay [9] the test system is Nucleic Acid. Put plainly: Binding affinity to STAT3 G-quadruplex in 3'-flanking region 5'-GGGCTGGGGATGGGGAGGGGG-3' assessed as melting temperature at 10 uM by UV-Vis spectrophotometry (reference value: 58 degC). In kind it is nucleic-acid assay.
The subject of assay [10] is Nucleic Acid. Put plainly: Binding affinity to human VEGF G-quadruplex 5'-GGGGCGGGCCGGGGGCGGGG-3' assessed as the intensity ratio of all complex ions to the sum of all G-quadruplex and complex ions at 20 uM by ESI mass spectroscopy relative to control. In kind it is nucleic-acid assay.
In assay [11] the test system is Nucleic Acid. Nature of the assay: Binding affinity to STAT3 G-quadruplex in 3'-flanking region 5'-GGGCTGGGGATGGGGAGGGGG-3' assessed as melting temperature at 20 uM by UV-Vis spectrophotometry (reference value: 58 degC). In kind it is nucleic-acid assay.

`COc1cc2c(cc1OC)-c1c(C)c3ccc(OC)c(OC)c3c[n+]1CC2`: the Ratio in the assay on Nucleic Acid [1] is 0.34.

Take `COc1ccc2cc1Oc1ccc(cc1)C[C@H]1c3c(cc4c(c3Oc3cc5c(cc3OC)CCN(C)[C@@H]5C2)OCO4)CCN1C`: the Ratio in the assay on Nucleic Acid [1] came out at 0.81; in the assay with Nucleic Acid [7], 0.47; with Nucleic Acid [10] it was 0.26. In addition, the outcome in the assay with Nucleic Acid [2] and in the assay on Nucleic Acid [8] was Active. Also, the inhibition result with HEK293 [3] and in the assay with HEK293 [5] was “inactive” throughout. Also, the Tm in the assay with Nucleic Acid [4] was 65 °C; in the assay with Nucleic Acid [9] it was 59 °C; in the assay on Nucleic Acid [11], 62 °C. Besides, the inhibition entry in the assay with Nucleic Acid [6] is “Active”.

Consider `C[n+]1ccc(-c2c3nc(c(-c4cc[n+](C)cc4)c4ccc([nH]4)c(-c4cc[n+](C)cc4)c4ccc([nH]4)c(-c4cc[n+](C)cc4)c4nc2C=C4)C=C3)cc1`, for which, in the assay with Nucleic Acid [1], the Ratio worked out at 0.53. In addition, the outcome in the assay with Nucleic Acid [2] and in the assay on Nucleic Acid [8] was Active. Moreover, the inhibition result in the assay with HEK293 [3] and in the assay with HEK293 [5] was “inactive” in each case. Also, the inhibition result in the assay with Nucleic Acid [6] was “Active”.
